Reference: PubChem BioAssay (NCI)
“And” between values parts separate entries of the source, which are not always exact repeats. Equal entries are not always repeated.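 Five compound concentrations were applied to cells in 96-well plates for 48 hours; endpoints were derived by simple linear interpolation of the resulting dose-response curve. GI50 = concentration required for 50% inhibition of growth. Definition used: TGI = concentration required for complete inhibition of growth.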

What was measured:
Assay in all cases: NCI anticancer screen, dose series, 48 h
[1] = tested on: 786-0 renal
[2] = tested on: IGROV1 ovarian
[3] = tested on: SK-MEL-5 melanoma
[4] = tested on: UO-31 renal
[5] = tested on: M14 melanoma
[6] = tested on: RXF 393 renal
[7] = tested on: HL-60(TB) leukemia
[8] = tested on: TK-10 renal
[9] = tested on: MDA-MB-231 breast
[10] = tested on: A549 NSCLC
[11] = tested on: SK-OV-3 ovarian
[12] = tested on: EKVX NSCLC
[13] = tested on: A498 renal
[14] = tested on: HT29 colon
[15] = tested on: PC-3 prostate
[16] = tested on: UACC-62 melanoma
[17] = tested on: T-47D breast
[18] = tested on: CAKI-1 renal
[19] = tested on: SF-539 CNS
[20] = tested on: NCI/ADR-RES ovarian
[21] = tested on: HOP-92 NSCLC
[22] = tested on: HCT-116 colon
[23] = tested on: COLO 205 colon
[24] = tested on: SNB-75 CNS
[25] = tested on: DU-145 prostate
[26] = tested on: HCT-15 colon
[27] = tested on: BT-549 breast
[28] = tested on: SN12C renal
[29] = tested on: SK-MEL-28 melanoma
[30] = tested on: RPMI-8226 leukemia
[31] = tested on: ACHN renal
[32] = tested on: OVCAR-5 ovarian
[33] = tested on: SF-295 CNS
[34] = tested on: UACC-257 melanoma
[35] = tested on: U251 CNS
[36] = tested on: SF-268 CNS
[37] = tested on: KM12 colon
[38] = tested on: NCI-H522 lung
[39] = tested on: OVCAR-8 ovarian
[40] = tested on: OVCAR-3 ovarian
[41] = tested on: HOP-62 NSCLC
[42] = tested on: OVCAR-4 ovarian
[43] = tested on: MCF7 breast
[44] = tested on: NCI-H23 lung
[45] = tested on: NCI-H226 lung
[46] = tested on: SNB-19 CNS
[47] = tested on: CCRF-CEM leukemia
[48] = tested on: MALME-3M melanoma
[49] = tested on: LOX IMVI melanoma
[50] = tested on: SR leukemia
[51] = tested on: MDA-MB-435
[52] = tested on: SW-620 colon
[53] = tested on: SK-MEL-2 melanoma
[54] = tested on: NCI-H460 lung
[55] = tested on: MOLT-4 leukemia
[56] = tested on: K-562 leukemia

CCCCCCCCCCCCC[N+](C)(C)Cc1ccccc1
GI50 [1]: 1.56 µM | TGI [1]: 3.07 µM | GI50 [2]: 0.477 µM | TGI [2]: 1.82 µM | GI50 [3]: 0.874 µM | TGI [3]: 2.11 µM | GI50 [4]: 2.05 µM | TGI [4]: 6.42 µM | GI50 [5]: 1.04 µM | TGI [5]: 2.4 µM | GI50 [6]: 0.385 µM | TGI [6]: 1.6 µM | GI50 [7]: 0.68 µM | TGI [7]: 2.15 µM | GI50 [8]: 0.871 µM | TGI [8]: 2.21 µM | GI50 [9]: 1.35 µM | TGI [9]: 2.9 µM | GI50 [10]: 1.61 µM | TGI [10]: 3.17 µM | GI50 [11]: 1.31 µM | TGI [11]: 2.6 µM | GI50 [12]: 1.57 µM | TGI [12]: 4.52 µM | GI50 [13]: 1.44 µM | TGI [13]: 5.01 µM | GI50 [14]: 0.493 µM | TGI [14]: 1.93 µM | GI50 [15]: 0.306 µM | TGI [15]: 1.4 µM | GI50 [16]: 0.633 µM | TGI [16]: 1.95 µM | GI50 [17]: 0.336 µM | TGI [17]: 1.71 µM | GI50 [18]: 4.99 µM | TGI [18]: 23 µM | GI50 [19]: 1.45 µM | TGI [19]: 2.97 µM | GI50 [20]: 18 µM | TGI [20]: 50.5 µM | GI50 [21]: 0.338 µM | TGI [21]: 1.83 µM | GI50 [22]: 0.925 µM | TGI [22]: 2.14 µM | GI50 [23]: 1.14 µM | TGI [23]: 2.45 µM | GI50 [24]: 1.5 µM | TGI [24]: 2.97 µM | GI50 [25]: 1.42 µM | TGI [25]: 2.74 µM | GI50 [26]: 5.08 µM | TGI [26]: 25.4 µM | GI50 [27]: 1.13 µM | TGI [27]: 2.42 µM | GI50 [28]: 1.2 µM | TGI [28]: 2.61 µM | GI50 [29]: 1.52 µM | TGI [29]: 2.89 µM | GI50 [30]: 0.451 µM | TGI [30]: 2.52 µM | GI50 [31]: 3.41 µM | TGI [31]: 12.8 µM | GI50 [32]: 1.47 µM | TGI [32]: 2.92 µM | GI50 [33]: 1.42 µM | TGI [33]: 2.87 µM | GI50 [34]: 1.36 µM | TGI [34]: 2.85 µM

COc1c(OCCCN2CCOCC2)ccc2c3n(c(=NC(=O)c4cnc(N)nc4)nc12)CCN3
TGI [35]: > 100 µM | TGI [36]: > 100 µM | GI50 [1]: 91.3 nM [middle of 4 runs] | TGI [2]: 40.3 nM [middle of 4 runs] | GI50 [3]: 228 nM [middle of 4 runs] | TGI [3]: 1.51 µM [middle of 4 runs] | GI50 [37]: 368 nM [middle of 4 runs] | GI50 [38]: 138 nM [middle of 4 runs] | GI50 [39]: 228 nM [middle of 4 runs] | TGI [39]: > 100 µM | GI50 [40]: 0.0362 µM and 0.0283 µM and 0.126 µM | TGI [40]: 0.89 µM and 0.976 µM and 4.92 µM | GI50 [41]: 132 nM [middle of 4 runs] | TGI [41]: > 100 µM | GI50 [4]: 0.0224 µM and 0.0238 µM and 0.0245 µM | GI50 [5]: 118 nM [middle of 4 runs] | GI50 [42]: 0.469 µM and 0.391 µM and 0.438 µM | TGI [42]: > 75 µM and 10.8 µM and 7.65 µM | TGI [7]: > 75 µM | TGI [43]: > 100 µM | GI50 [44]: 398 nM [middle of 4 runs] | TGI [44]: > 100 µM | TGI [8]: 0.198 µM and 0.782 µM | GI50 [9]: 339 nM [middle of 4 runs] | GI50 [45]: 144 nM [middle of 4 runs] | TGI [45]: > 100 µM | TGI [11]: 0.0673 µM and 0.446 µM and 0.0745 µM | GI50 [46]: 297 nM [middle of 4 runs] | TGI [46]: > 100 µM | GI50 [47]: 48.9 nM [middle of 4 runs] | TGI [47]: > 100 µM | GI50 [14]: 0.0177 µM and 0.0249 µM and 0.0109 µM | TGI [14]: > 100 µM | TGI [15]: > 100 µM | TGI [48]: 448 nM [middle of 4 runs] | GI50 [49]: 64.9 nM [middle of 4 runs] | GI50 [16]: 48.3 nM [middle of 4 runs] | TGI [16]: 464 nM [middle of 4 runs] | GI50 [17]: 0.0075 µM and 0.00258 µM and < 0.01 µM | TGI [17]: 0.0394 µM and 0.0408 µM and 0.0302 µM | TGI [18]: 3.38 µM and > 10 µM and 2.4 µM | GI50 [50]: 315 nM [middle of 4 runs] | TGI [19]: 664 nM [middle of 4 runs] | GI50 [51]: 142 nM [middle of 4 runs] | GI50 [20]: 428 nM [middle of 4 runs] | TGI [20]: > 100 µM | GI50 [22]: 109 nM [middle of 4 runs] | TGI [22]: > 100 µM | GI50 [23]: 38.1 nM [middle of 4 runs] | GI50 [24]: 0.0075 µM and < 0.0123 µM and < 0.01 µM | TGI [24]: 0.0504 µM and 0.033 µM | TGI [25]: > 100 µM | GI50 [26]: 59.9 nM [middle of 4 runs] | TGI [26]: > 100 µM | GI50 [28]: 88.5 nM [middle of 4 runs] | TGI [28]: > 100 µM | TGI [29]: 7.66 µM and 0.81 µM and 1.64 µM | GI50 [52]: 216 nM [middle of 4 runs] | TGI [52]: > 100 µM | GI50 [53]: 197 nM [middle of 4 runs] | GI50 [54]: 39.7 nM [middle of 4 runs] | TGI [54]: > 100 µM | GI50 [55]: 0.0363 µM and 0.0409 µM and 0.0283 µM | GI50 [30]: 0.22 µM and 0.174 µM and 0.323 µM | TGI [30]: 2.05 µM and > 10 µM | GI50 [31]: 72.3 nM [middle of 4 runs] | TGI [31]: > 100 µM | GI50 [32]: 31.2 nM [middle of 4 runs] | TGI [32]: > 100 µM | GI50 [33]: 74.8 nM [middle of 4 runs] | TGI [33]: 814 nM [middle of 4 runs] | GI50 [56]: 1.68 µM [middle of 4 runs] | TGI [56]: > 100 µM | GI50 [34]: 77.4 nM [middle of 4 runs]
